Values joined by “and” are separate entries in the source; they are usually repeats but may differ in a detail not shown here. Identical values can stand only once. “Also recorded” adds a separate entry of the source. Like-named read-outs stand apart in the source and are kept apart here.
Experiments:
[1] = target: T1, P-gp (Homo sapiens, UniProt P08183); test: in vitro; details: LLC-PK1
[2] = system: Human Chymotrypsin; type: biochemical
[3] = target: Human Caspase 2 (Homo sapiens, UniProt P42575); test: biochemical
[4] = in vitro; details: pig, LLC-PK1
[5] = system: MERS-CoV; test: microbe, parasite or virus in culture; type: cell-based; details: Middle East respiratory syndrome-related coronavirus, VeroE6/TMPRSS2, read-out: EC50 MERS-CoV
[6] = in vitro; details: both, human, microsomes
[7] = in vitro; details: African green monkey
[8] = pig
[9] = system: SARS-CoV-2 Gamma strain (hCoV-19/Japan/TY7-501/2021); test: microbe, parasite or virus in culture; type: cell-based
[10] = system: SARS-CoV-2 hCoV-19/Japan/TY/WK-521 strain; test: microbe, parasite or virus in culture; type: cell-based; details: Severe acute respiratory syndrome coronavirus 2, HEK-293T, read-out: HEK 293T-AT EC50
[11] = target: HIV-1 Protease (Human immunodeficiency virus type 1 group M subtype B, UniProt P04585); test: biochemical
[12] = in vivo; details: male, beagle, dog, iv, 0.1 mg/kg
[13] = in vivo; details: female, cynomolgus monkey, iv, 0.1 mg/kg
[14] = in vivo; details: male, Sprague-Dawley, rat; for clearance / half-life: iv; for bioavailability: po, 1 umol/kg
[15] = in vitro; details: male, rat, microsomes
[16] = system: SARS-CoV; test: microbe, parasite or virus in culture; type: cell-based; details: Severe acute respiratory syndrome coronavirus, VeroE6/TMPRSS2, read-out: EC50 SARS-CoV
[17] = system: SARS-CoV-2 Gamma strain (hCoV-19/Japan/TY7-501/2021); parameters: species or system BALB/cAJcl mice; details: mouse, in vivo
[18] = in vivo
[19] = system: SARS-CoV-2 Omicron strains; test: microbe, parasite or virus in culture; type: cell-based; details: Severe acute respiratory syndrome coronavirus 2, Epithelial cell
[20] = system: Human Cathepsin B/D/G/L; type: biochemical
[21] = system: HCoV-OC43; test: microbe, parasite or virus in culture; type: cell-based; details: Betacoronavirus 1, OC43, MRC5, read-out: EC50 HCoV-OC43
[22] = system: HCoV-229E; test: microbe, parasite or virus in culture; type: cell-based
[23] = target: T1, P-gp; details: LLC-PK1
[24] = target: Human Thrombin (Homo sapiens, UniProt P00734); test: biochemical
[25] = system: SARS-CoV-2; test: microbe, parasite or virus in culture; type: cell-based; details: Severe acute respiratory syndrome coronavirus 2, A549
[26] = target: SARS-CoV-2 3CL^pro (Severe acute respiratory syndrome coronavirus 2, UniProt P0DTD1); test: biochemical; type: biochemical
[27] = LLC-PK1; cited from earlier work
[28] = target: T1, P-gp; details: LLC-PK1; cited from earlier work
[29] = system: SARS-CoV; details: cited from earlier work
[30] = system: MERS-CoV; details: cited from earlier work
[31] = system: SARS-CoV-2 hCoV-19/Japan/TY/WK-521 strain; details: read-out: HEK 293T-AT EC50; cited from earlier work
[32] = human, microsomes, 0.5 h; cited from earlier work
[33] = system: HCoV-229E; details: cited from earlier work
[34] = rat, microsomes, 0.5 h; cited from earlier work
[35] = Severe acute respiratory syndrome coronavirus 2, VeroE6/TMPRSS2, read-out: EC90, 0% serum
[36] = Severe acute respiratory syndrome coronavirus 2, VeroE6/TMPRSS2, read-out: EC90, 12.5% serum
[37] = Severe acute respiratory syndrome coronavirus 2, VeroE6/TMPRSS2, read-out: EC90, 25% serum

T1 sequence (P08183 whole entry): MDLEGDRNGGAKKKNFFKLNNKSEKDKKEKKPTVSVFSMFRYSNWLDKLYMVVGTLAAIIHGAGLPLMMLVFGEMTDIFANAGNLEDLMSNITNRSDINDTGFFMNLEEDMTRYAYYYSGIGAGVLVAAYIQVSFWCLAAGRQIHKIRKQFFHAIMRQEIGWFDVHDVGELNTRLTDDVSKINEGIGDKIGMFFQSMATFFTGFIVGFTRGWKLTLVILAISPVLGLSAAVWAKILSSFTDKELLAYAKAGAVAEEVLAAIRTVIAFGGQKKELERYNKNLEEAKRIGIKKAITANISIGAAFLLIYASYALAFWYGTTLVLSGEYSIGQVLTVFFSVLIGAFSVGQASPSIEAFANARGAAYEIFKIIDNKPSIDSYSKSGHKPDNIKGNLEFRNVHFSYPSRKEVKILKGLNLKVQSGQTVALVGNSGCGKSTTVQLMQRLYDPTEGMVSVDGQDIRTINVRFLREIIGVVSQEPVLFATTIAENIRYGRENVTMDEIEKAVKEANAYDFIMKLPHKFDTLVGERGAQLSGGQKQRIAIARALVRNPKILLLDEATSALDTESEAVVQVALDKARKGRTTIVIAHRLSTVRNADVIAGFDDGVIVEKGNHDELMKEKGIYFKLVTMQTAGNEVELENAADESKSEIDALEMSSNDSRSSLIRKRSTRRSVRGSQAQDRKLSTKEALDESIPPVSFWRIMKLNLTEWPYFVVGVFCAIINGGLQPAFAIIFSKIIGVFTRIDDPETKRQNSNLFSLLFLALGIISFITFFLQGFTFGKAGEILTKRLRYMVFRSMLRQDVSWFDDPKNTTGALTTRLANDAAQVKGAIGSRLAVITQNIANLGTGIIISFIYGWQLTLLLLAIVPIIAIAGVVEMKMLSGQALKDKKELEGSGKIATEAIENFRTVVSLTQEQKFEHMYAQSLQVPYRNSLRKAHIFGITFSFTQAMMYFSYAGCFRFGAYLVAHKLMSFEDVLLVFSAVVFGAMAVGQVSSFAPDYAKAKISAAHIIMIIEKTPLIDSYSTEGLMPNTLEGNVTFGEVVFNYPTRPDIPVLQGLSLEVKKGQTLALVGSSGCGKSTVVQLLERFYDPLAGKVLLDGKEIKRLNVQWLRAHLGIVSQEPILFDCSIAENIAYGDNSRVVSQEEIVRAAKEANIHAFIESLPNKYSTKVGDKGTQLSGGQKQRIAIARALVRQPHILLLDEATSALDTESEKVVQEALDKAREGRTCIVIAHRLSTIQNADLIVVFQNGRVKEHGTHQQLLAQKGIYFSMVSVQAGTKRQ
Sequence of Human Caspase 2 (P42575 170-333): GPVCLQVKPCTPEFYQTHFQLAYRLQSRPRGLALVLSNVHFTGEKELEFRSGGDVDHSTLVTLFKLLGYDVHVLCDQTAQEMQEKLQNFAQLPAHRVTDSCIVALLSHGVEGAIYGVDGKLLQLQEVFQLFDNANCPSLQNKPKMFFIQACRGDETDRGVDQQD
Sequence of Human Caspase 2 (P42575 348-452): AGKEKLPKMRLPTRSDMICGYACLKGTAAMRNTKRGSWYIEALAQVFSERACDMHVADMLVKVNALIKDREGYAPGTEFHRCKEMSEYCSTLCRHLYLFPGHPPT

N#CCn1c(N2CC3(C2)CC(F)(F)C3)c(-c2ccc(F)c(Cl)c2)c(=O)n(-c2cncc(Cl)c2)c1=O [Compound 17, [5-(3-Chloro-4-fluorophenyl)-3-(5-chloropyridin-3-yl)-6-(6,6-difluoro-2-azaspiro[3.3]-heptan-2-yl)-2,4-dioxo-3,4-dihydropyrimidin-1(2H)-yl]-acetonitrile]
Papp A→B [1]: 2.48 ×10⁻⁶ cm/s
Papp B→A [1]: 22.4 ×10⁻⁶ cm/s
IC50 [2]: > 10000 nM
IC50 [3]: > 10000 nM
Papp A→B [4]: 6.17 ×10⁻⁶ cm/s
Papp B→A [4]: 7.36 ×10⁻⁶ cm/s
EC50 [5]: 57.3 nM
remaining at 0.5 h [6]: 99%
CC50 [7]: > 100000 nM
LLC-PK1 P app [8]: 6.17 × 10^–6 cm/s
EC90 [9, 35]: 1.66 ± 0.14 nM
EC90 [9, 36]: 1.98 ± 0.08 nM
EC90 [9, 37]: 3.42 ± 0.55 nM
EC90 ([9]; read-out: EC90, 12.5% serum): 2.43 ± 0.32 nM
EC90 ([9]; read-out: EC90, 25% serum): 2.76 ± 0.66 nM
EC50 [10]: 2.48 nM
IC50 [11]: > 10000 nM
clearance [12]: 2.52 mL/min/kg
half-life [12]: 24.9 h
clearance [13]: 11.4 mL/min/kg
half-life [13]: 7.02 h
clearance [14]: 6.79 mL/min/kg
half-life [14]: 8.14 h
bioavailability [14]: 100%
remaining at 0.5 h [15]: 92%
EC50 [16]: 6.61 nM
lung virus titers [17]: reduced lung virus titers in a dose-dependent manner; also recorded: Virus titer reduction was observed; also recorded: appeared to reach maximum efficacy
adverse effects [18]: No adverse effects were observed
teratogenicity [18]: No teratogenicity was observed
EC90 [19]: 2.41 ± 1.61 nM
EC90 ([19]; in Mus musculus, read-out: protein-adjusted EC90 (PA-EC90)): 27 nM to 28.1 nM and 0.0141 µg/mL to 0.0147 µg/mL
IC50 [20]: > 10000 nM
EC50 [21]: 92 nM
EC50 ([22]; read-out: EC50 HCoV-229E): 3570 ± 510 nM
P-gp substrate assessment [23]: P-gp substrates
IC50 [24]: > 10000 nM
EC50 [25]: 2.21 nM

N#CCn1c(N2CC(O)(C(F)(F)F)C2)c(-c2ccc(F)c(Cl)c2)c(=O)n(-c2cncc(Cl)c2)c1=O [Compound 18, 2-(5-(3-Chloro-4-fluorophenyl)-3-(5-chloropyridin-3-yl)-6-(3-hydroxy-3-(trifluoromethyl)-azetidin-1-yl)-2,4-dioxo-3,4-dihydropyrimidin-1(2H)-yl)-acetonitrile]
Papp A→B [4]: 1.26 ×10⁻⁶ cm/s
remaining at 0.5 h [6]: 103%
EC50 [10]: 3.82 nM
clearance [12]: 4.59 mL/min/kg
half-life [12]: 8.74 h
clearance [13]: 19.7 mL/min/kg
half-life [13]: 3.48 h
clearance [14]: 6.69 mL/min/kg
half-life [14]: 6.89 h
bioavailability [14]: 38%
IC50 [26]: 0.391 nM
remaining at 0.5 h [15]: 99%

Cn1cnc(Cn2c(=O)[nH]/c(=N\c3cc4cn(C)nc4cc3Cl)n(Cc3cc(F)c(F)cc3F)c2=O)n1 [ensitrelvir]
Papp Apical to Basolateral [27]: 10.3 ± 0.3 ×10-6 cm/sec
Papp Basolateral to Apical [27]: 11.6 ± 0.3 ×10-6 cm/sec
Papp Apical to Basolateral [28]: 2.03 ± 0.07 ×10-6 cm/sec
Papp Basolateral to Apical [28]: 30.2 ± 1.8 ×10-6 cm/sec
EC50 [29]: 210 nM
EC50 [30]: 1400 nM
EC90 [9, 35]: 118 ± 52 nM
EC90 [9, 36]: 367 ± 69 nM
EC90 [9, 37]: 608 ± 75 nM
EC90 ([9]; Severe acute respiratory syndrome coronavirus 2, VeroE6/TMPRSS2, read-out: EC90, 50% serum): 838 ± 191 nM
EC90 ([9]; Severe acute respiratory syndrome coronavirus 2, VeroE6/TMPRSS2, read-out: EC90, 100% (Extrapolated)): 1590 ± 330 nM
EC90 ([9]; read-out: EC90, 12.5% serum): 218 ± 60 nM
EC90 ([9]; read-out: EC90, 25% serum): 462 ± 129 nM
EC90 ([9]; read-out: EC90, 50% serum): 1560 ± 290 nM
EC90 ([9]; read-out: EC90, 100% (Extrapolated)): 2920 ± 550 nM
EC90 [19]: 60.1 ± 32.8 nM
EC50 [21]: 142 ± 9 nM
EC50 [31]: 27 nM
P-gp substrate assessment [23]: P-gp substrates
HLM % remained [32]: 96/88^25%
EC50 [25]: 73.1 ± 16.4 nM
EC50 [33]: 5500 nM
RLM % remained [34]: 96/88^25%

CC(C)(C)[C@H](NC(=O)C(F)(F)F)C(=O)N1C[C@H]2[C@@H]([C@H]1C(=O)N[C@H](C#N)C[C@@H]1CCNC1=O)C2(C)C [nirmatrelvir, reference compound]
Papp A→B [1]: 0.908 ×10⁻⁶ cm/s
Papp B→A [1]: 9.39 ×10⁻⁶ cm/s
Papp A→B [4]: 0.615 ×10⁻⁶ cm/s
Papp B→A [4]: 1.42 ×10⁻⁶ cm/s
EC90 [19]: 45.1 ± 21.2 nM
EC50 [21]: 58.8 ± 12.2 nM
EC50 ([22]; Human coronavirus 229E, MRC5, read-out: EC50 HCoV-229E): 696 ± 210 nM
P-gp substrate assessment [23]: P-gp substrates
EC50 [25]: 47.5 ± 12.3 nM
